Measured values as given in patent publication US10687525B2, “Enhancement of cell cryopreservation with glycolipids” (TISSUE TESTING TECHNOLOGIES LLC, priority 2016, dated 2020).

Test system: keratinocytes
Test: Cell viability of keratinocytes after cryopreservation in 10% DMSO in RPMI (alamarBlue)
Format: cell-based
Conditions: keratinocytes cryopreserved in vials or culture plates in 10% DMSO in RPMI
Description: In the results discussed below, measurement of Cell Viability and Proliferation in FIGS. 1-4 employed AlamarBlue™ by measuring the oxidation/reduction reactions that take place within cells. AlamarBlue™ was added directly to the plates containing cultured cells in culture medium and incubated for 3 hours at 37° C. Upon reduction, AlamarBlue™ changes color and this color change can be measured and quantified. The culture plates were read using a Gemini EM fluorescent microplate reader ([…]) at an excitation wavelength of 544 nm and an emission wavelength of 590 nm. […] Keratinocytes were cryopreserved in vials or in culture plates in 10% DMSO in RPMI. Metabolic activity was measured immediately after thawing and for several days post thaw. Cell viability (in percent of untreated controls) was calculated as the mean (±SEM) of 120 replicates.

C[S+](C)[O-] [DMSO, dimethyl sulfoxide]
cell yields after cryopreservation (cell viability in percent of untreated controls): below 50%
